In PMC10281575, “PfCRT mutations conferring piperaquine resistance in falciparum malaria shape the kinetics of quinoline drug binding and transport” (PLOS Pathogens, 2023):
“And” between values parts separate entries of the source, which are not always exact repeats. Equal entries are not always repeated.

Biological target: T1, PfCRT^Dd2_F145I (Plasmodium falciparum, UniProt Q8IBZ9, A220S/F145I/I356T/K76T/M74I/N326S/N75E/Q271E/R371I)
T1 construct: expressed in transfected cells; host or cells: Xenopus laevis oocytes injected with in vitro transcribed RNA (pSP64T)
T1 sequence (Q8IBZ9 1-424 M74I/N75E/K76T/F145I/A220S/Q271E/N326S/I356T/R371I): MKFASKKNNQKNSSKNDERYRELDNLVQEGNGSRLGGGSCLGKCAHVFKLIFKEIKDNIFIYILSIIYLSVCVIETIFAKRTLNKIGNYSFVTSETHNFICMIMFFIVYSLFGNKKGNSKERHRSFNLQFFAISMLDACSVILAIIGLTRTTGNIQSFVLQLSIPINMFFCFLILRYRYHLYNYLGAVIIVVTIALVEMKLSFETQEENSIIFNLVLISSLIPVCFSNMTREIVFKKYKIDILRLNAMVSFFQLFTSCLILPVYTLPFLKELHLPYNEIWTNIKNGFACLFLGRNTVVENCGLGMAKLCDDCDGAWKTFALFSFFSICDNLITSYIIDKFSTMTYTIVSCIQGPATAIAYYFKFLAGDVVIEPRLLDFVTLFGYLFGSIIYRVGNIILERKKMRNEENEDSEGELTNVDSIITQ
Test: Competition kinetics of drug transport (radiolabeled substrate plus cold inhibitor), PfCRT^Dd2_F145I-expressing oocytes
Format: cell-based
Experimental: To further characterize the kinetic relationship between CQ and PPQ, we performed a series of competition reactions. To this end, water-injected oocytes and PfCRT-expressing oocytes were incubated in medium containing one of seven concentrations of radio-labeled CQ and one of six concentrations of cold PPQ for 60 min before the amount of radio-labeled CQ uptake was determined. The rate of PfCRT-mediated CQ uptake was calculated for each condition by subtracting the corresponding value obtained for water-injected oocytes from those of PfCRT-expressing oocytes. The results were analyzed as a function of the CQ concentration (Fig 4A) and 16 different models of substrate competition were globally fit to the data by the least-squares method, using Python. The models were ranked, according to their Akaike information criterion difference (ΔAICC) and their Akaike weight (Fig 4B), with the most plausible model being the one with the lowest AICC (ΔAICC = 0) and the highest Akaike weight.
A complementary set of experiments was undertaken to investigate the kinetic mechanism by which PfCRT^Dd2_F145I accepts CQ and PPQ (Fig 6). […] These included a global fit of the substrate competition data to the 16 kinetic models (Fig 6), analysis of the secondary plots (Vmax,app and Vmax,app/KM,app as a function of the inhibitor concentration) (Fig 7A), a fractional velocity plot analysis (Fig 7B) and a comparison of the experimental data with the modelled data using the noncompetitive inhibition equation (Fig 7C to 7F). […] The fractional velocity plot illustrated the partial character of the noncompetitive inhibition mechanism by yielding a partiality factor β^CQ = 0.31 ± 0.04, by which PPQ reduces the transport velocity of CQ (Fig 7B). […] A 3D model of the kinetics between PfCRT^Dd2_F145I, CQ and PPQ, and analyses of the residuals as a function of substrate and inhibitor concentrations confirmed that the model was also an appropriate explanation for the mutant transporter (Fig 7C to 7F).
Drug transport assays were performed as previously described. Briefly, measurements of radiolabeled drug uptake were made over 1 h, unless otherwise specified. […] Where specified, one or more unlabeled drugs were also present at the indicated concentrations. The direction of drug transport in the assays is from the extracellular medium (pH 6) into the oocyte cytosol (pH 7.2), which corresponds to the efflux of CQ or PPQ from the acidic digestive vacuole (pH 5.2) into the parasite cytosol (pH 7.2). The uptake assays were terminated by removing the oocytes from the reaction medium and washing them three times with 2 mL of ice-cold ND96 buffer. Each oocyte was transferred to a separate scintillation vial and lysed by the addition of 200 μL of a 5% SDS solution. The radioactivity in the sample was measured using a liquid scintillation analyser Tri-Carb 4910 TR (PerkinElmer). Water-injected oocytes were analyzed in parallel as a negative control. The buffer from each condition was measured in duplicate in parallel to each experiment to transform counts per minute into pmol of drug. Drug uptake attributable to PfCRT was determined by subtracting the background uptake from water-injected oocytes from that of PfCRT-expressing oocytes. In all cases, at least three independent experiments were performed on oocytes from different frogs, and for each condition in an experiment, measurements were made from 10 oocytes per treatment.
The following equations were adopted from Segel (1993), and the reader is referred to that text for the assumptions made in the author’s approach in the derivation of each equation [31]. The concentration of substrate is denoted as [S1] and the concentration of the inhibiting substrate is denoted as [S2]. KS1 and KS2 are the dissociation constants for the respective substrate-protein complexes.
Analyses of the kinetic data were performed using SigmaPlot version 13.0 and Python. […]

## Clc1ccc2c(N3CCN(CCCN4CCN(c5ccnc6cc(Cl)ccc56)CC4)CC3)ccnc2c1 [PPQ, piperaquine]
10 µM PPQ, 0 µM CQ
  PfCRTDd2_F145I-mediated PPQ transport: 11.21 pmol oocyte-1 h-1 and 11.88 pmol oocyte-1 h-1 and 9.04 pmol oocyte-1 h-1
10 µM PPQ, 50 µM CQ
  PfCRTDd2_F145I-mediated PPQ transport: 9.4 pmol oocyte-1 h-1 and 8.02 pmol oocyte-1 h-1 and 11.57 pmol oocyte-1 h-1
10 µM PPQ, 125 µM CQ
  PfCRTDd2_F145I-mediated PPQ transport: 7.93 pmol oocyte-1 h-1 and 10.99 pmol oocyte-1 h-1 and 8.58 pmol oocyte-1 h-1
10 µM PPQ, 200 µM CQ
  PfCRTDd2_F145I-mediated PPQ transport: 8.51 pmol oocyte-1 h-1 and 7.12 pmol oocyte-1 h-1 and 10.43 pmol oocyte-1 h-1
10 µM PPQ, 400 µM CQ
  PfCRTDd2_F145I-mediated PPQ transport: 7.41 pmol oocyte-1 h-1 and 6.45 pmol oocyte-1 h-1
50 µM PPQ, 25 µM CQ
  PfCRTDd2_F145I-mediated PPQ transport: 33.88 pmol oocyte-1 h-1 and 40.73 pmol oocyte-1 h-1 and 51.89 pmol oocyte-1 h-1
50 µM PPQ, 50 µM CQ
  PfCRTDd2_F145I-mediated PPQ transport: 40.89 pmol oocyte-1 h-1 and 44.12 pmol oocyte-1 h-1 and 39.8 pmol oocyte-1 h-1
50 µM PPQ, 125 µM CQ
  PfCRTDd2_F145I-mediated PPQ transport: 36.42 pmol oocyte-1 h-1 and 31.75 pmol oocyte-1 h-1 and 38.13 pmol oocyte-1 h-1
50 µM PPQ, 400 µM CQ
  PfCRTDd2_F145I-mediated PPQ transport: 17.03 pmol oocyte-1 h-1 and 21.16 pmol oocyte-1 h-1
100 µM PPQ, 0 µM CQ
  PfCRTDd2_F145I-mediated PPQ transport: 60.49 pmol oocyte-1 h-1 and 74.22 pmol oocyte-1 h-1 and 56.91 pmol oocyte-1 h-1
100 µM PPQ, 25 µM CQ
  PfCRTDd2_F145I-mediated PPQ transport: 59.02 pmol oocyte-1 h-1 and 57.16 pmol oocyte-1 h-1 and 56.63 pmol oocyte-1 h-1
100 µM PPQ, 50 µM CQ
  PfCRTDd2_F145I-mediated PPQ transport: 63 pmol oocyte-1 h-1 and 53.26 pmol oocyte-1 h-1 and 51.28 pmol oocyte-1 h-1
100 µM PPQ, 125 µM CQ
  PfCRTDd2_F145I-mediated PPQ transport: 52.64 pmol oocyte-1 h-1 and 47.96 pmol oocyte-1 h-1 and 53 pmol oocyte-1 h-1
100 µM PPQ, 200 µM CQ
  PfCRTDd2_F145I-mediated PPQ transport: 45.31 pmol oocyte-1 h-1 and 44.84 pmol oocyte-1 h-1 and 60.71 pmol oocyte-1 h-1
100 µM PPQ, 400 µM CQ
  PfCRTDd2_F145I-mediated PPQ transport: 44.06 pmol oocyte-1 h-1 and 56.54 pmol oocyte-1 h-1
200 µM PPQ, 25 µM CQ
  PfCRTDd2_F145I-mediated PPQ transport: 102.24 pmol oocyte-1 h-1 and 78.79 pmol oocyte-1 h-1 and 91.29 pmol oocyte-1 h-1
200 µM PPQ, 50 µM CQ
  PfCRTDd2_F145I-mediated PPQ transport: 94.74 pmol oocyte-1 h-1 and 73.08 pmol oocyte-1 h-1 and 99.27 pmol oocyte-1 h-1
200 µM PPQ, 125 µM CQ
  PfCRTDd2_F145I-mediated PPQ transport: 78.46 pmol oocyte-1 h-1 and 108.53 pmol oocyte-1 h-1 and 73.37 pmol oocyte-1 h-1
200 µM PPQ, 400 µM CQ
  PfCRTDd2_F145I-mediated PPQ transport: 85.32 pmol oocyte-1 h-1 and 58.78 pmol oocyte-1 h-1
300 µM PPQ, 0 µM CQ
  PfCRTDd2_F145I-mediated PPQ transport: 115.45 pmol oocyte-1 h-1 and 117.23 pmol oocyte-1 h-1
300 µM PPQ, 25 µM CQ
  PfCRTDd2_F145I-mediated PPQ transport: 115.11 pmol oocyte-1 h-1 and 88.35 pmol oocyte-1 h-1 and 102.98 pmol oocyte-1 h-1
300 µM PPQ, 50 µM CQ
  PfCRTDd2_F145I-mediated PPQ transport: 85.96 pmol oocyte-1 h-1 and 103.73 pmol oocyte-1 h-1 and 93.02 pmol oocyte-1 h-1
300 µM PPQ, 125 µM CQ
  PfCRTDd2_F145I-mediated PPQ transport: 84.14 pmol oocyte-1 h-1 and 103.07 pmol oocyte-1 h-1 and 81.24 pmol oocyte-1 h-1
300 µM PPQ, 200 µM CQ
  PfCRTDd2_F145I-mediated PPQ transport: 75.68 pmol oocyte-1 h-1 and 80.62 pmol oocyte-1 h-1 and 99.18 pmol oocyte-1 h-1
300 µM PPQ, 400 µM CQ
  PfCRTDd2_F145I-mediated PPQ transport: 77.19 pmol oocyte-1 h-1 and 102 pmol oocyte-1 h-1
400 µM PPQ, 0 µM CQ
  PfCRTDd2_F145I-mediated PPQ transport: 130.32 pmol oocyte-1 h-1 and 101.99 pmol oocyte-1 h-1
400 µM PPQ, 25 µM CQ
  PfCRTDd2_F145I-mediated PPQ transport: 115.19 pmol oocyte-1 h-1 and 112.21 pmol oocyte-1 h-1 and 107.93 pmol oocyte-1 h-1
400 µM PPQ, 50 µM CQ
  PfCRTDd2_F145I-mediated PPQ transport: 86.8 pmol oocyte-1 h-1 and 110.06 pmol oocyte-1 h-1 and 116.13 pmol oocyte-1 h-1
400 µM PPQ, 125 µM CQ
  PfCRTDd2_F145I-mediated PPQ transport: 93.73 pmol oocyte-1 h-1 and 100.31 pmol oocyte-1 h-1 and 96.89 pmol oocyte-1 h-1
400 µM PPQ, 200 µM CQ
  PfCRTDd2_F145I-mediated PPQ transport: 75.94 pmol oocyte-1 h-1 and 96.5 pmol oocyte-1 h-1 and 106.38 pmol oocyte-1 h-1
400 µM PPQ, 400 µM CQ
  PfCRTDd2_F145I-mediated PPQ transport: 105.94 pmol oocyte-1 h-1 and 73.74 pmol oocyte-1 h-1
500 µM PPQ, 0 µM CQ
  PfCRTDd2_F145I-mediated PPQ transport: 124.15 pmol oocyte-1 h-1 and 149.83 pmol oocyte-1 h-1
500 µM PPQ, 25 µM CQ
  PfCRTDd2_F145I-mediated PPQ transport: 134.09 pmol oocyte-1 h-1 and 105.12 pmol oocyte-1 h-1 and 107.54 pmol oocyte-1 h-1
500 µM PPQ, 50 µM CQ
  PfCRTDd2_F145I-mediated PPQ transport: 102.67 pmol oocyte-1 h-1 and 147.39 pmol oocyte-1 h-1 and 78.85 pmol oocyte-1 h-1
500 µM PPQ, 125 µM CQ
  PfCRTDd2_F145I-mediated PPQ transport: 105.59 pmol oocyte-1 h-1 and 76.21 pmol oocyte-1 h-1 and 122.33 pmol oocyte-1 h-1
500 µM PPQ, 200 µM CQ
  PfCRTDd2_F145I-mediated PPQ transport: 62.06 pmol oocyte-1 h-1 and 101.24 pmol oocyte-1 h-1
